Numbered stars: 1 amine (or outer) side, 2 acyl side, 3 side chain; on linkers, the order of the positions; unused ones are H or OH. Bridge positions count the residues as written; N and C are the ends. Square brackets hold non-standard residues; d marks the D form. Peptide text beside a SMILES is read from it. * marks the point of attachment. ξ: configuration not given here. Phe(4-COOH) = N[C@@H](Cc1ccc(C(=O)O)cc1)C(=O)O; Bip = N[C@@H](Cc1ccc(-c2ccccc2)cc1)C(=O)O; NH(CH2)14COOH = O=C(O)CCCCCCCCCCCCCCN*; βAsp = O=C(O)[C@H](CC(=O)[*:2])N[*:1]; NH(CH2)12COOH = O=C(O)CCCCCCCCCCCCN*; hArg = N=C(N)NCCCC[C@H](N)C(=O)O; 4Pal = N[C@@H](Cc1ccncc1)C(=O)O; Cha = N[C@@H](CC1CCCCC1)C(=O)O; Ile(3ξ) = CCC(C)[C@H](N)C(=O)O; Thr(3ξ) = CC(O)[C@H](N)C(=O)O; 12Ado = NCCCCCCCCCCCC(=O)O; Carboxymethyl = O=C(O)C*; Orn = NCCC[C@H](N)C(=O)O; Aun = NCCCCCCCCCCC(=O)O; Dab = NCC[C@H](N)C(=O)O; AEEA = NCCOCCOCC(=O)O

T1 sequence (Q15116 25-288): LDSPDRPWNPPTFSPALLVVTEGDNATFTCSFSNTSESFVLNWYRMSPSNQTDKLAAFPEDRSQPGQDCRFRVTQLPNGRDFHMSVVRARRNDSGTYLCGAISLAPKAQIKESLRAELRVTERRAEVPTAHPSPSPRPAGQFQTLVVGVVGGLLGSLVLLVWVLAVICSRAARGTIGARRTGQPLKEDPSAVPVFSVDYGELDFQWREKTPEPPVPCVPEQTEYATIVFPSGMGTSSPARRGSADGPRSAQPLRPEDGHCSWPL

This assay has as its target T1, PD-1/PD-L1 interaction (PE-labeled human PD-L1-Ig binding to Jurkat cell line over-expressing human PD-1) (Homo sapiens, UniProt Q15116).
T1 construct: expressed in transfected cells; host or cells: Jurkat
As to the kind of experiment: Jurkat-PD-1 Cell Binding High-Content Screening Assay (CBA). The assay is classed as cell-based. As to conditions: Jurkat cell line over-expressing human PD-1; PE-labeled PD-L1-Ig 20 nM final; read-out: Jurkat hPD1-PDL1 IC50. In outline: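 Jurkat cells stably over-expressing human PD-1 were seeded in DMEM with 10% fetal calf serum and pre-incubated with compound for 2 h at 37° C. PE-labeled human PD-L1-Ig was then added at 20 nM final for 1 hour, after which cells were fixed with paraformaldehyde, Hoechst-stained and imaged by high-content microscopy.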
`CC(C)C[C@H]1NC(=O)[C@H](CCCN)NC(=O)[C@H](C(C)C)NC(=O)[C@H](Cc2ccc(-c3ccccc3)cc2)NC(=O)[C@H](C(C)C)NC(=O)[C@H](Cc2c[nH]c3ccccc23)NC(=O)[C@H](CC(=O)O)NC(=O)[C@H](Cc2ccc(OCC(=O)O)cc2)NC(=O)[C@H](CCCCNC(=N)N)NC(=O)CSC[C@@H](C(=O)N[C@@H](CC(N)=O)C(=O)NCCOCCOCC(=O)N[C@@H](CCCN)C(=O)NCCCCCCCCCCC(=O)O)NC(=O)[C@H](C(C)O)NC(=O)[C@H](C(C)C)NC(=O)[C@H](CC2CCCCC2)NC(=O)[C@H](CCN)NC1=O` (stereo partly drawn) [Compound 3030] ({CH2CO}-[hArg]Y(Carboxymethyl)DWV[Bip]V[Orn][dL][Dab][Cha]V[Thr(3ξ)]CN[AEEA][Orn][Aun]-OH; thioether N-14): the IC50 came out at 12.1 nM.
On to `CC(C)C[C@H]1NC(=O)[C@H](CCCN)NC(=O)[C@H](C(C)C)NC(=O)[C@H](Cc2ccc(-c3ccccc3)cc2)NC(=O)[C@H](C(C)C)NC(=O)[C@H](Cc2c[nH]c3ccccc23)NC(=O)[C@H](CC(=O)O)NC(=O)[C@H](Cc2ccc(OCC(=O)O)cc2)NC(=O)[C@H](C(C)O)NC(=O)CSC[C@@H](C(=O)N[C@@H](CC(N)=O)C(=O)NCCOCCOCC(=O)N[C@@H](CCCN)C(=O)NCCCCCCCCCCC(=O)O)NC(=O)[C@H](C(C)O)NC(=O)[C@H](C(C)C)NC(=O)[C@H](CC2CCCCC2)NC(=O)[C@H](CCN)NC1=O` (stereo partly drawn) [Compound 3031] ({CH2CO}-[Thr(3ξ)]Y(Carboxymethyl)DWV[Bip]V[Orn][dL][Dab][Cha]V[Thr(3ξ)]CN[AEEA][Orn][Aun]-OH; thioether N-14), for which the IC50 amounted to 3.4 nM.
Consider `CC(C)C[C@H]1NC(=O)[C@H](CCCN)NC(=O)[C@H](C(C)C)NC(=O)[C@H](Cc2ccc(-c3ccccc3)cc2)NC(=O)[C@H](C(C)C)NC(=O)[C@H](Cc2c[nH]c3ccccc23)NC(=O)[C@H](CC(=O)O)NC(=O)[C@H](Cc2ccc(OCC(=O)O)cc2)NC(=O)[C@H](CCCCNC(=N)N)NC(=O)CSC[C@@H](C(=O)N[C@@H](C)C(=O)NCCOCCOCC(=O)N[C@@H](CCCN)C(=O)NCCCCCCCCCCC(=O)O)NC(=O)[C@H](C(C)O)NC(=O)[C@H](C(C)C)NC(=O)[C@H](CC2CCCCC2)NC(=O)[C@H](Cc2c[nH]cn2)NC1=O` (stereo partly drawn) [Compound 3032] ({CH2CO}-[hArg]Y(Carboxymethyl)DWV[Bip]V[Orn][dL]H[Cha]V[Thr(3ξ)]CA[AEEA][Orn][Aun]-OH; thioether N-14), for which the IC50 came out at 26.5 nM.
For `CC(C)C[C@H]1NC(=O)[C@H](CCCN)NC(=O)[C@H](C(C)C)NC(=O)[C@H](Cc2ccc(-c3ccccc3)cc2)NC(=O)[C@H](C(C)C)NC(=O)[C@H](Cc2c[nH]c3ccccc23)NC(=O)[C@H](CC(=O)O)NC(=O)[C@H](Cc2ccc(OCC(=O)O)cc2)NC(=O)[C@H](C(C)O)NC(=O)CSC[C@@H](C(=O)N[C@@H](C)C(=O)NCCOCCOCC(=O)N[C@@H](CCCN)C(=O)NCCCCCCCCCCC(=O)O)NC(=O)[C@H](C(C)O)NC(=O)[C@H](C(C)C)NC(=O)[C@H](CC2CCCCC2)NC(=O)[C@H](Cc2c[nH]cn2)NC1=O` (stereo partly drawn) [Compound 3033] ({CH2CO}-[Thr(3ξ)]Y(Carboxymethyl)DWV[Bip]V[Orn][dL]H[Cha]V[Thr(3ξ)]CA[AEEA][Orn][Aun]-OH; thioether N-14), the IC50 was determined as 11.3 nM.
The value for `CC(C)C[C@H]1NC(=O)[C@H](CCCN)NC(=O)[C@H](CCC(=O)O)NC(=O)[C@H](Cc2ccc(-c3ccccc3)cc2)NC(=O)[C@H](C(C)C)NC(=O)[C@H](Cc2c[nH]c3ccccc23)NC(=O)[C@H](CC(=O)O)NC(=O)[C@H](Cc2ccncc2)NC(=O)[C@H](CCCCNC(=N)N)NC(=O)CSC[C@@H](C(=O)N[C@@H](C)C(=O)NCCOCCOCC(=O)N[C@@H](CCCCN)C(=O)NCCCCCCCCCCCCCCC(=O)O)NC(=O)[C@H](CO)NC(=O)[C@H](C(C)C)NC(=O)[C@H](CC2CCCCC2)NC(=O)[C@H](CCN)NC1=O` [Compound 3034] ({CH2CO}-[hArg][4Pal]DWV[Bip]E[Orn][dL][Dab][Cha]VSCA[AEEA]K-{NH(CH2)14COOH}; thioether N-14) was 109 nM; that for `CC(C)C[C@H]1NC(=O)[C@H](CCCN)NC(=O)[C@H](C(C)C)NC(=O)[C@H](Cc2ccc(-c3ccccc3)cc2)NC(=O)[C@H](C(C)C)NC(=O)[C@H](Cc2c[nH]c3ccccc23)NC(=O)[C@H](CC(=O)O)NC(=O)[C@H](Cc2ccc(OCC(=O)O)cc2)NC(=O)[C@H](CCCCNC(=N)N)NC(=O)CSC[C@@H](C(=O)NCC(=O)NCCOCCOCC(=O)N[C@@H](CCCN)C(=O)NCCCCCCCCCCC(=O)O)NC(=O)[C@H](CO)NC(=O)[C@H](C(C)C)NC(=O)[C@H](CC2CCCCC2)NC(=O)[C@H](CCN)NC1=O` [Compound 3035] ({CH2CO}-[hArg]Y(Carboxymethyl)DWV[Bip]V[Orn][dL][Dab][Cha]VSCG[AEEA][Orn][Aun]-OH; thioether N-14) was 10.7 nM.
In the case of `CC(C)C[C@H]1NC(=O)[C@H](CCCN)NC(=O)[C@H](C(C)C)NC(=O)[C@H](Cc2ccc(-c3ccccc3)cc2)NC(=O)[C@H](C(C)C)NC(=O)[C@H](Cc2c[nH]c3ccccc23)NC(=O)[C@H](CC(=O)O)NC(=O)[C@H](Cc2ccc(OCC(=O)O)cc2)NC(=O)[C@H](CCCCNC(=N)N)NC(=O)CSC[C@@H](C(=O)NCC(=O)NCCOCCOCC(=O)N[C@@H](CCCN)C(=O)NCCCCCCCCCCCC(=O)O)NC(=O)[C@H](CO)NC(=O)[C@H](C(C)C)NC(=O)[C@H](CC2CCCCC2)NC(=O)[C@H](CCN)NC1=O` [Compound 3036] ({CH2CO}-[hArg]Y(Carboxymethyl)DWV[Bip]V[Orn][dL][Dab][Cha]VSCG[AEEA][Orn][12Ado]-OH; thioether N-14), the IC50 turned out to be 4.9 nM.
Consider `CC(C)C[C@H]1NC(=O)[C@H](CCCN)NC(=O)[C@H](C(C)C)NC(=O)[C@H](Cc2ccc(-c3ccccc3)cc2)NC(=O)[C@H](C(C)C)NC(=O)[C@H](Cc2c[nH]c3ccccc23)NC(=O)[C@H](CC(=O)O)NC(=O)[C@H](Cc2ccc(OCC(=O)O)cc2)NC(=O)[C@H](CCCCNC(=N)N)NC(=O)CSC[C@@H](C(=O)NCC(=O)NCCOCCOCC(=O)N[C@@H](CCCN)C(=O)NCCCCCCCCCCCCC(=O)O)NC(=O)[C@H](CO)NC(=O)[C@H](C(C)C)NC(=O)[C@H](CC2CCCCC2)NC(=O)[C@H](CCN)NC1=O` [Compound 3037] ({CH2CO}-[hArg]Y(Carboxymethyl)DWV[Bip]V[Orn][dL][Dab][Cha]VSCG[AEEA][Orn]-{NH(CH2)12COOH}; thioether N-14), for which the IC50 came to 16.5 nM.
Take `CC(C)C[C@H]1NC(=O)[C@H](CCCN)NC(=O)[C@H](C(C)C)NC(=O)[C@H](Cc2ccc(-c3ccccc3)cc2)NC(=O)[C@H](C(C)C)NC(=O)[C@H](Cc2c[nH]c3ccccc23)NC(=O)[C@H](CC(=O)O)NC(=O)[C@H](Cc2ccc(C(=O)O)cc2)NC(=O)[C@H](C(C)O)NC(=O)CSC[C@@H](C(=O)N[C@@H](CC(N)=O)C(=O)NCCOCCOCC(=O)N[C@@H](CCCN)C(=O)NCCCCCCCCCCCC(=O)O)NC(=O)[C@H](CO)NC(=O)[C@H](C(C)C)NC(=O)[C@H](CC2CCCCC2)NC(=O)[C@H](CCN)NC1=O` (stereo partly drawn) [Compound 3038] ({CH2CO}-[Thr(3ξ)][Phe(4-COOH)]DWV[Bip]V[Orn][dL][Dab][Cha]VSCN[AEEA][Orn][12Ado]-OH; thioether N-14): the IC50 is 11.3 nM.
Regarding `CCC(C)[C@@H]1NC(=O)[C@H](Cc2ccc(-c3ccccc3)cc2)NC(=O)[C@H](C(C)C)NC(=O)[C@H](Cc2c[nH]c3ccccc23)NC(=O)[C@H](CC(=O)O)NC(=O)[C@H](Cc2ccc(C(=O)O)cc2)NC(=O)[C@H](Cc2ccncc2)NC(=O)CSC[C@@H](C(=O)N[C@@H](CC(N)=O)C(=O)NCCOCCOCC(=O)N[C@@H](CCCN)C(=O)NCCCCCCCCCCC(=O)O)NC(=O)[C@H](CO)NC(=O)[C@H](C(C)C)NC(=O)[C@H](CC2CCCCC2)NC(=O)[C@H](CCN)NC(=O)[C@@H](CC(C)C)NC(=O)[C@H](CCCN)NC1=O` (stereo partly drawn) [Compound 3039] ({CH2CO}-[4Pal][Phe(4-COOH)]DWV[Bip][Ile(3ξ)][Orn][dL][Dab][Cha]VSCN[AEEA][Orn][Aun]-OH; thioether N-14), the IC50 was 10.5 nM.
Regarding `CCC(C)[C@@H]1NC(=O)[C@H](Cc2ccc(-c3ccccc3)cc2)NC(=O)[C@H](C(C)C)NC(=O)[C@H](Cc2c[nH]c3ccccc23)NC(=O)[C@H](CC(=O)O)NC(=O)[C@H](Cc2ccncc2)NC(=O)[C@H](C(C)O)NC(=O)CSC[C@@H](C(=O)N[C@@H](CC(N)=O)C(=O)NCCOCCOCC(=O)N[C@@H](CCCN)C(=O)NCCCCCCCCCCCCC(=O)O)NC(=O)[C@H](CO)NC(=O)[C@H](C(C)C)NC(=O)[C@H](CC2CCCCC2)NC(=O)[C@H](CCN)NC(=O)[C@@H](CC(C)C)NC(=O)[C@H](CCCN)NC1=O` (stereo partly drawn) [Compound 3040] ({CH2CO}-[Thr(3ξ)][4Pal]DWV[Bip][Ile(3ξ)][Orn][dL][Dab][Cha]VSCN[AEEA][Orn]-{NH(CH2)12COOH}; thioether N-14), the IC50 was found to be 15 nM.
The value for `CC(C)C[C@H]1NC(=O)[C@H](CCCN)NC(=O)[C@H](C(C)C)NC(=O)[C@H](Cc2ccc(-c3ccccc3)cc2)NC(=O)[C@H](C(C)C)NC(=O)[C@H](Cc2c[nH]c3ccccc23)NC(=O)[C@H](CC(=O)O)NC(=O)[C@H](Cc2ccc(OCC(=O)O)cc2)NC(=O)[C@H](C(C)O)NC(=O)CSC[C@@H](C(=O)NCCOCCOCC(=O)N[C@@H](CC(=O)NCCCCCCCCCCCC(=O)O)C(=O)O)NC(=O)[C@H](CO)NC(=O)[C@H](C(C)C)NC(=O)[C@H](CC2CCCCC2)NC(=O)[C@H](CCN)NC1=O` (stereo partly drawn) [Compound 3041] ({CH2CO}-[Thr(3ξ)]Y(Carboxymethyl)DWV[Bip]V[Orn][dL][Dab][Cha]VSC[AEEA][βAsp][12Ado]-OH; thioether N-14) was 12.7 nM.

Broadly, the IC50 is the concentration that gives 50% inhibition.

Source of the values: US20260022142A1, “MACROCYCLIC IMMUNOMODULATORS” (Bristol-Myers Squibb Company, priority 2022, published 2026).
